Source: patent publication US9526717B2, “Composition for treating immune diseases containing daurinol compound as active ingredient” (THE CATHOLIC UNIVERSITY OF KOREA INDUSTRY-ACADEMIC …, priority 2013, dated 2016)

Legend:
[1] = tested on: splenocytes of the animal model with lupus; test: TNF-α level in splenocytes of animal model with lupus (ELISA); type: cell-based; settings: daurinol 1 μM and 5 μM, anti-CD3 0.5 μg/mL or LPS 100 ng/mL, three days
Description: (§1) Additionally, for the confirmation of the effect of controlling the formation of inflammatory cytokines, the splenocytes of the animal model with lupus were treated with daurinol (1 μM and 5 μM) and anti-CD3 (0.5 μg/mL) or LPS (100 ng/mL) for three days and the levels of IL-17 and TNF-α inflammatory cytokines were evaluated by ELISA assay.

[2] = tested on: splenocytes of the animal model with lupus; test: IL-17 level in splenocytes of animal model with lupus (ELISA); type: cell-based; settings: daurinol 1 μM and 5 μM, anti-CD3 0.5 μg/mL or LPS 100 ng/mL, three days
Description: as §1

phospho m-TOR = test: Western blot of phospho m-TOR in CD4+T cells; type: cell-based; settings: CD4+T cells of normal mouse, daurinol 5 μM, anti-CD3 0.5 μg/mL, 3 days
Description: (§2) For the observation of changes in intracellular cell signaling factors treated with daurinol, a western blot analysis was performed. For this purpose, CD4+T cells were isolated from a normal mouse, treated with daurinol (5 μM) in a condition already treated with anti-CD3 antibodies (0.5 μg/mL), cultured for 3 days, and the cells were dissolved and proteins were extracted therefrom. Then, the extracted proteins were subjected to SDS-PAGE electrophoresis, and the proteins were electrically transferred onto a nitrocellulose membrane, subjected to a blocking reaction with 5% skim milk for 1 hour, reacted by attaching primary antibodies to STAT3, STAT3p705, STAT3p727, and phospho m-TOR thereto, reacting again by attaching secondary antibodies to the same, and sensitized onto a Kodak X-ray using enhanced chemilunimoecence (ECL), and thereby the protein expression levels of the genes were analyzed.

[3] = tested on: animal model with induced inflammatory bowel disease; test: Weight, disease activity index and length of intestine in animal model with inflammatory bowel disease; type: in vivo, mouse
Excerpt: For the confirmation of the effect of the daurinol compound of the present invention on the treatment of inflammatory bowel disease, the present inventors first constructed an animal model with induced inflammatory bowel disease. For the experimental model, C57BL/6(H-2kb) mice were used. For the construction of an animal model with induced inflammatory bowel disease, the mice were fed with 3.5% dextran sulfate sodium (DSS) and water for a week, thereby preparing an animal model with induced inflammatory bowel disease. The present inventors divided the experimental animals into a normal control group, a group of an animal model with induced inflammatory bowel disease, and a group of an animal model with induced inflammatory bowel disease treated with daurinol or a TNF-α inhibitor, and the group treated with daurinol was administered orally and intrarectally with daurinol (20 mg/kg) from the 4th day after the induction with the disease. […] Additionally, one of the features of inflammatory bowel disease is that the damage and shortening of the length of the large intestine are related to the disease activity index. For the analysis of the therapeutic effect of daurinol on the inflammatory bowel disease, the experimental animals were euthanased two weeks after the daurinol treatment, and the length of their intestines were measured.

[4] = tested on: phospho STAT3 (p705, p′727); test: Western blot of phospho STAT3 in CD4+T cells; type: cell-based; settings: CD4+T cells of normal mouse, daurinol 5 μM, anti-CD3 0.5 μg/mL, 3 days
Description: as §2

[5] = tested on: animal model with graft versus host disease; test: Therapeutic effect in animal model with graft versus host disease (GVHD); type: in vivo, mouse; settings: GVHD Balb/c recipient mice, daurinol 20 mg/kg 3 times a week, total of 9 times, vs GVHD control group
Excerpt: In order to confirm whether daurinol can be actually applied to the treatment of a different immune disease, the therapeutic effects of daurinol was examined using an animal model with graft versus host disease. First, for the construction of an animal with graft versus host disease, a recipient mouse, Balb/c(H-2k/d), was exposed to total body irradiation (TBI) (800 cGy). Then, hematopoietic stem cells and splenocytes were isolated from the femur and the tibia of the donor mouse and the hematopoietic stem cells (5×10^6 cells) and the splenocytes (1×10^6 cells) were transplanted to a recipient mouse Balb/c(H-2k/d). After the transplantation, daurinol (20 mg/kg of weight) was injected 3 times a week for a total of 9 times, and in particular, daurinol was used after dissolving in a mixed solvent (DMSO:Crernophor EL:DW=1:1:8). The experiment was performed and analyzed for the experimental groups in which each group consisted of five mice.

[6] = tested on: splenocytes of an animal model with obesity arthritis; test: Th17/Treg activity by flow cytometry in splenocytes of animal model with obesity arthritis; type: cell-based; settings: daurinol 1 μM, anti-CD3 0.5 μg/mL, 3 days
Description: Additionally, for the confirmation of controlling the activity of Th17/Treg cells, the splenocytes of an animal model with obesity arthritis were treated with daurinol (1 μM) and anti-CD3 (0.5 μg/mL) and cultured for 3 days, and the activity of Th17/Treg cells controlled by daurinol were evaluated via flow cytometry.

[7] = tested on: mouse with induced inflammatory bowel disease (IBD); test: Antibodies expressed in the sera of IBD animal model; type: in vivo; settings: IBD mice treated with daurinol
Excerpt: For the confirmation of the effect of the daurinol compound of the present invention on the treatment of inflammatory bowel disease, the present inventors first constructed an animal model with induced inflammatory bowel disease. For the experimental model, C57BL/6(H-2kb) mice were used. For the construction of an animal model with induced inflammatory bowel disease, the mice were fed with 3.5% dextran sulfate sodium (DSS) and water for a week, thereby preparing an animal model with induced inflammatory bowel disease.
The present inventors divided the experimental animals into a normal control group, a group of an animal model with induced inflammatory bowel disease, and a group of an animal model with induced inflammatory bowel disease treated with daurinol or a TNF-α inhibitor, and the group treated with daurinol was administered orally and intrarectally with daurinol (20 mg/kg) from the 4th day after the induction with the disease.
Sera were isolated from a mouse with induced inflammatory bowel disease (IBD), and mice treated with daurinol and TNF-α inhibitor, respectively. The levels of IL-17, IFNγ, IL-6, and the like, which are inflammatory cytokines, in the isolated sera were measured by ELISA assay.
Accordingly, since daurinol can reduce not only the expression of the inflammatory cytokines but also the formation of antibodies in an animal model with inflammatory bowel disease, daurinol can inhibit and control the immune response to autoantibodies and the B cell-related inflammation responses.

## COc1cc2c(-c3ccc4c(c3)OCO4)c3c(cc2cc1O)COC3=O [daurinol]
[1]
  expression of TNF-α (ELISA): inhibited the expression of IL-17 and TNF-α in a dose-dependent manner
[2]
  expression of IL-17 (ELISA): inhibited the expression of IL-17 and TNF-α in a dose-dependent manner
Phospho m-TOR
  expression of phospho m-TOR: significant decrease
[3]; DSS-induced IBD C57BL/6 mice, daurinol 20 mg/kg orally and intrarectally from 4th day
  disease activity index (DAI): significant decrease
[3]; DSS-induced IBD C57BL/6 mice, daurinol 20 mg/kg orally and intrarectally from 4th day, vs IBD group
  weight: significant improvement in weight
[3]; DSS-induced IBD mice, two weeks after the daurinol treatment, vs IBD group
  length of the intestine: significant increase in the length of the intestine
[4]
  expression of phospho STAT3 (p705, p′727): significant decrease
[5]
  degree of disease: improvement in the degree of disease
  degree of survival: maintenance of the degree of survival for 30 days
[6]
  activity of Foxp3+ Treg cells (flow cytometry): induced the activity of Foxp3+ Treg cells
  expression of IL-17 (Th17, flow cytometry): significantly inhibited the expression of IL-17
[7]
  level of IgG1 antibodies in sera: reduced the levels
  level of IgG2 antibodies in sera: reduced the levels
  level of IgG3 antibodies in sera: reduced the levels
  level of IgG antibodies in sera: reduced the levels
